# Values joined by “and” are separate entries in the source; they are usually repeats but may differ in a detail not shown here. Identical values can stand only once.
# Test system: 616215-338-R-J1-PDC complex spheroid viability
# Test: Anticancer human tumor 616215-338-R-J1-PDC patient-derived colon adenocarcinoma cell line growth inhibition [RAS]
# Settings: for viability, T/C: stronger effect = lower value
# Source text: RAS pathway inhibitors in Combinations in Complex Spheroids
# A high-throughput screen of multi-cell type tumor spheroids was designed to identify active combinations of RAS pathway inhibitors and targeted small molecules. Complex spheroids include a stromal component modeled by human endothelial cells (HUVEC) and fibroblasts modeled by human mesenchymal stem cells (MSCs). The concentration ranges selected for each drug and investigational agent were based upon clinically achievable concentrations if the clinical Cmax of the agent was known.
# Compounds. The drugs and investigational agents: abemaciclib (NSC768073), cobimetinib (NSC768068), divarasib (GDC6063, NSC841802), docetaxel (NSC628503), GDC-1971 (RLY-1971, NSC841576), gemcitabine (NSC613327), inavolisib (NSC800729), ipatasertib (NSC767898), KB-0742 (NSC834161), MRTX-1133 (NSC836407), osimertinib (NSC779217), RMC-4630 (NSC839698), RMC-6236 (NSC851965), RMC-6291 (NSC852671), Ro-3306 (NSC812927), sapanisertib (NSC764658), SN-38 (NSC673596), staurosporine (NSC755774), SY5609 (NSC837396), and tovorafenib (DAY101, NSC766906), were obtained from the National Cancer Institute (NCI) Developmental Therapeutics Program Chemical Repository. The FDA-approved anticancer drug set is available from the NCI Developmental Therapeutics Program. […] The stock solutions were prepared in dimethyl sulfoxide (DMSO, Sigma-Aldrich, St. Louis, MO, cat. D2650) at 800-fold the tested concentration and stored at -70 degrees C prior to their use. All drugs and investigational agents were tested over a range starting from a high concentration at or near the clinical Cmax and decreasing in half-log increments. If the clinical Cmax for an agent had not been determined, the highest concentration tested was 10 microM.
# Cell Culture. All cells were maintained in an incubator at 37 degrees C and 5% CO2 with 95% humidity. The PDC lines were cultured according to standard operating procedures established by the NCI PDMR. All PDCs were thawed and cultured in Matrigel-coated flasks prepared with a working solution of 1X Ham's F-12 nutrient mix, without supplementation (Invitrogen, Waltham, MA, cat. 11765054), 100 U/mL penicillin-streptomycin (Invitrogen, cat. 15140122), and 2.5% Matrigel (Corning Inc., Corning, NY, cat. 354248) for the first three passages. The 362531-283-R-J2-PDC and 782815-120-R-J1-PDC lines were cultured in 6C/Colon 1B media, which includes advanced DMEM/F-12 (Thermo Fisher Scientific, cat. 12634028), 10 mM HEPES (Thermo Fisher Scientific, cat. 15630080), 1X GlutaMAX supplement (Thermo Fisher Scientific, cat. 35050061), 0.1 mg/mL primocin (InvivoGen, San Diego, CA, cat. ant-pm-2), 10% defined fetal bovine serum, heat inactivated (HyClone Laboratories Inc., Logan, UT, cat. SH30070.03HI), 50% L-WRN conditioned media (ATCC, cat. CRL-3276), 1.25 mM N-Acetyl-L-cysteine (Sigma-Aldrich, cat. A9165), 10 mM nicotinamide (Sigma-Aldrich, cat. N0636), 1X B-27 supplement (Thermo Fisher Scientific, cat. 17504044), 1X N-2 supplement (Thermo Fisher Scientific, cat. 17502048), 50 ng/mL human EGF (Thermo Fisher Scientific, cat. PHG0311), and 10 microM Y-27632 dihydrochloride (Tocris Bioscience, cat. 1254). The K12877-001-R-J1-PDC line was cultured in 6I media, which includes all 6C/Colon 1B media plus 10 ng/mL human FGF-10 (PeproTech, cat. 100-26), 1 ng/mL human FGF-2 (PeproTech, cat. 100-18B), 1 µM prostaglandin E2 (Tocris Bioscience, cat. 2296), […] hydrocortisone (Sigma-Aldrich, cat. H4001), and […] bovine insulin (Sigma-Aldrich, cat. I6634). The K86415-001-R-J1-PDC line was cultured in 6D media, which includes all 6C/Colon 1B media components minus the L-WRN conditioned media. The 485176-168-R4-J1-PDC was cultured in PANC media, which includes all 6C/Colon 1B media plus 100 ng/mL human FGF-10 (PeproTech, cat. 100-26), 500 nM SB-431542 (Selleckchem, cat. S1067), and 10 nM gastrin (Tocris Bioscience, cat. 3006). […]
# [1] = curve of first compound, second compound 0.0316 µM
# [2] = curve of first compound, second compound 0.1 µM
# [3] = curve of first compound, second compound 0.316 µM
# [4] = curve of first compound, second compound 1 µM
# [5] = curve of first compound, second compound 3.16 µM
# [6] = curve of first compound, second compound 10 µM
# [7] = second compound 0.0316 µM, first compound 0.00316 µM
# [8] = second compound 0.0316 µM, first compound 0.01 µM
# [9] = second compound 0.0316 µM, first compound 0.0316 µM
# [10] = second compound 0.0316 µM, first compound 0.1 µM
# [11] = second compound 0.0316 µM, first compound 0.316 µM
# [12] = second compound 0.0316 µM, first compound 1 µM
# [13] = second compound 0.1 µM, first compound 0.00316 µM
# [14] = second compound 0.1 µM, first compound 0.01 µM
# [15] = second compound 0.1 µM, first compound 0.0316 µM
# [16] = second compound 0.1 µM, first compound 0.1 µM
# [17] = second compound 0.1 µM, first compound 0.316 µM
# [18] = second compound 0.1 µM, first compound 1 µM
# [19] = second compound 0.316 µM, first compound 0.00316 µM
# [20] = second compound 0.316 µM, first compound 0.01 µM
# [21] = second compound 0.316 µM, first compound 0.0316 µM
# [22] = second compound 0.316 µM, first compound 0.1 µM
# [23] = second compound 0.316 µM, first compound 0.316 µM
# [24] = second compound 0.316 µM, first compound 1 µM
# [25] = second compound 1 µM, first compound 0.00316 µM
# [26] = second compound 1 µM, first compound 0.01 µM
# [27] = second compound 1 µM, first compound 0.0316 µM
# [28] = second compound 1 µM, first compound 0.1 µM
# [29] = second compound 1 µM, first compound 0.316 µM
# [30] = second compound 1 µM, first compound 1 µM
# [31] = second compound 3.16 µM, first compound 0.00316 µM
# [32] = second compound 3.16 µM, first compound 0.01 µM
# [33] = second compound 3.16 µM, first compound 0.0316 µM
# [34] = second compound 3.16 µM, first compound 0.1 µM
# [35] = second compound 3.16 µM, first compound 0.316 µM
# [36] = second compound 3.16 µM, first compound 1 µM
# [37] = second compound 10 µM, first compound 0.00316 µM
# [38] = second compound 10 µM, first compound 0.01 µM
# [39] = second compound 10 µM, first compound 0.0316 µM
# [40] = second compound 10 µM, first compound 0.1 µM
# [41] = second compound 10 µM, first compound 0.316 µM
# [42] = second compound 10 µM, first compound 1 µM
# 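Note: spheroids exposed to agents for seven days before viability readout.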
# 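Throughout, for viability, T/C: 100% = DMSO vehicle control viability.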
structure (smiles),measurement,setting,value
CC(=O)OC12COC1CC(O)C1(C)C(=O)C(O)C3=C(C)C(OC(=O)C(O)C(NC(=O)OC(C)(C)C)c4ccccc4)CC(O)(C(OC(=O)c4ccccc4)C21)C3(C)C (stereo not drawn),"viability, T/C",compound 0.0316 µM,27.8% [middle of 4 runs]
same,"viability, T/C",compound 0.1 µM,21% [middle of 4 runs]
same,"viability, T/C",compound 0.316 µM,19.1% (2×) and 21.2% and 18.8%
same,"viability, T/C",compound 1 µM,21.3% [middle of 4 runs]
same,"viability, T/C",compound 3.16 µM,22.3% [middle of 4 runs]
same,"viability, T/C",compound 10 µM,28.5% [middle of 4 runs]
same,IC50,curve of compound,< 31.6 nM
Cc1nc(N2CCC3(CC2)COC(C)C3N)c(CO)nc1Sc1ccnc(N)c1Cl (stereo not drawn),"viability, T/C",compound 0.0316 µM,105% (2×) and 103% and 97.3%
same,"viability, T/C",compound 0.1 µM,103% (2×) and 106% and 97.7%
same,"viability, T/C",compound 0.316 µM,109% [middle of 4 runs]
same,"viability, T/C",compound 1 µM,108% [middle of 4 runs]
same,"viability, T/C",compound 3.16 µM,86.9% [middle of 4 runs]
same,"viability, T/C",compound 10 µM,85.4% [middle of 4 runs]
same,IC50,curve of compound,> 10000 nM
NC1c2ccccc2OC12CCN(c1cnc3c(N4CCCc5ncccc54)n[nH]c3n1)CC2 (stereo not drawn),"viability, T/C",compound 0.0316 µM,114% [middle of 4 runs]
same,"viability, T/C",compound 0.316 µM,92.2% [middle of 4 runs]
same,"viability, T/C",compound 1 µM,76.5% [middle of 4 runs]
same,"viability, T/C",compound 10 µM,55.8% [middle of 4 runs]
same,IC50,curve of compound,> 10000 nM and 3160 nM and 6760 nM
C=CC(=O)Nc1cc(Nc2nccc(-c3cn(C)c4ccccc34)n2)c(OC)cc1N(C)CCN(C)C + C#Cc1c(F)ccc2cc(O)cc(-c3ncc4c(N5CC6CCC(C5)N6)nc(OCC56CCCN5CC(F)C6)nc4c3F)c12,IC50,[1],> 1000 nM
same,IC50,[2],> 1000 nM
same,IC50,[3],846 nM
same,IC50,[4],587 nM
same,IC50,[5],150 nM
same,IC50,[6],150 nM
same,"viability, T/C",[7],101%
same,"viability, T/C",[8],109%
same,"viability, T/C",[9],101%
same,"viability, T/C",[10],106%
same,"viability, T/C",[11],98.1%
same,"viability, T/C",[12],68.4%
same,"viability, T/C",[13],106%
same,"viability, T/C",[14],108%
same,"viability, T/C",[15],104%
same,"viability, T/C",[16],110%
same,"viability, T/C",[17],115%
same,"viability, T/C",[18],74.5%
same,"viability, T/C",[19],114%
same,"viability, T/C",[20],110%
same,"viability, T/C",[21],109%
same,"viability, T/C",[22],109%
same,"viability, T/C",[23],93.2%
same,"viability, T/C",[24],42.7%
same,"viability, T/C",[25],112%
same,"viability, T/C",[26],109%
same,"viability, T/C",[27],117%
same,"viability, T/C",[28],82.4%
same,"viability, T/C",[29],75.5%
same,"viability, T/C",[30],31.4%
same,"viability, T/C",[31],104%
same,"viability, T/C",[32],124%
same,"viability, T/C",[33],79.8%
same,"viability, T/C",[34],59.6%
same,"viability, T/C",[35],42.2%
same,"viability, T/C",[36],35.9%
same,"viability, T/C",[37],67.2%
same,"viability, T/C",[38],71.2%
same,"viability, T/C",[39],62.2%
same,"viability, T/C",[40],56.5%
same,"viability, T/C",[41],39.4%
same,"viability, T/C",[42],21.7%
O=C(c1ccc(F)c(F)c1Nc1ccc(I)cc1F)N1CC(O)([C@@H]2CCCCN2)C1 + C#Cc1c(F)ccc2cc(O)cc(-c3ncc4c(N5CC6CCC(C5)N6)nc(OCC56CCCN5CC(F)C6)nc4c3F)c12,IC50,[1],87.7 nM
same,IC50,[2],75.4 nM
same,IC50,[3],55.9 nM
same,IC50,[4],30.5 nM
same,IC50,[5],19 nM
same,IC50,[6],< 3.16 nM
same,"viability, T/C",[7],112%
same,"viability, T/C",[8],98%
same,"viability, T/C",[9],83.8%
same,"viability, T/C",[10],47.4%
same,"viability, T/C",[11],12.5%
same,"viability, T/C",[12],5.72%
same,"viability, T/C",[13],114%
same,"viability, T/C",[14],112%
same,"viability, T/C",[15],85.1%
same,"viability, T/C",[16],39.3%
same,"viability, T/C",[17],10%
same,"viability, T/C",[18],6.39%
same,"viability, T/C",[19],124%
same,"viability, T/C",[20],111%
same,"viability, T/C",[21],73.6%
same,"viability, T/C",[22],25.3%
same,"viability, T/C",[23],13%
same,"viability, T/C",[24],5.14%
same,"viability, T/C",[25],115%
same,"viability, T/C",[26],96.3%
same,"viability, T/C",[27],44.3%
same,"viability, T/C",[28],24.3%
same,"viability, T/C",[29],8.74%
same,"viability, T/C",[30],5.44%
same,"viability, T/C",[31],75.3%
same,"viability, T/C",[32],64.9%
same,"viability, T/C",[33],36.6%
same,"viability, T/C",[34],23.4%
same,"viability, T/C",[35],7.41%
same,"viability, T/C",[36],3.17%
same,"viability, T/C",[37],48.8%
same,"viability, T/C",[38],35.3%
same,"viability, T/C",[39],24.3%
same,"viability, T/C",[40],14.4%
same,"viability, T/C",[41],1.94%
same,"viability, T/C",[42],1.77%

# Source: PubChem BioAssay AID2060898 (Molecular Pharmacology Branch, DTP, NCI, 2025)
